PubChem BioAssay AID588780 (Sanford-Burnham Center for Chemical Genomics, 2011)
pIC50: −log10 of the molar value. Activity calls are given as the source filed them.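 How the source made its calls: active means compounds whose fitted half-maximal concentration in the cell-protection dose series is at or below a set limit; inactive means the rest.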

System: H9c2 cardiomyocytes, 2-deoxyglucose stress, ATP luminescence, 2 h
Assay: H9c2 cell survival under 2-deoxyglucose stress – uHTS hits, dose response (AID 588780)

| Structure (SMILES) | IC50 | pIC50 |
| --- | --- | --- |
| Cc1nn2c(-c3cccc(NC(=O)c4ccco4)c3)nnc2c2ccccc12 | > 79 µM (inactive) |  |
| O=C(COC(=O)Cc1n[nH]c(=O)c2ccccc12)NNC(=O)c1ccc(Br)cc1 | > 79 µM (inactive) |  |
| COc1ccc(NCc2cc3ccccc3[nH]c2=O)cc1 | > 79 µM (inactive) |  |
| COc1ccc2oc(C(=O)Nc3ccc(N4CCOCC4)cc3)c(C)c2c1 | > 79 µM (inactive) |  |
| O=C(CSc1nc2ccccc2c(=O)[nH]1)N1CCCCCC1 | > 79 µM (inactive) |  |
| CCN(C[C@H]1N[C@@](CC)(C(=O)OC)[C@H]2C(=O)N(Cc3ccccc3)C(=O)[C@@H]12)S(=O)(=O)c1ccc(F)cc1 | > 79 µM (inactive) |  |
| Cc1cnc(NC(=O)CSc2nc3ccccc3c(=O)[nH]2)s1 | > 79 µM (inactive) |  |
| CCSc1nnc(N)s1 | > 79 µM (inactive) |  |
| CCOC(=O)Cc1csc(SCc2cc(=O)oc3cc(O)ccc23)n1 | 51.9 µM (inactive) |  |
| O=C(Nc1nc(-c2cc(F)ccc2F)cs1)C1=NN(c2ccccc2)C(=O)CC1 | > 79 µM (inactive) |  |
| COc1ccc(-c2cc(C(=O)NNC(=O)c3csc(N4CCOCC4)n3)c3ccccc3n2)cc1 | > 79 µM (inactive) |  |
| Cc1ccc2cc(C#N)c(N3CCN(C(=O)c4cccs4)CC3)nc2c1 | > 79 µM (inactive) |  |
| Cc1cccc(NC(=O)c2oc3ccc(S(=O)(=O)N4CCOCC4)cc3c2C)c1C | > 79 µM (inactive) |  |
| COc1cc(OC)cc(C(=O)Nc2ccc(C(=O)Nc3ccccc3OC)cc2)c1 |  | 4.80 |
| O=C(NNC(=O)c1ccccc1OCc1ccccc1Cl)c1csc(N2CCOCC2)n1 |  | 4.65 |
| COc1ccc2o/c(=N/NC(=O)c3cccs3)c(C(N)=O)cc2c1 |  | 4.79 |
| Cc1c(C2Nc3ccccc3C(=O)N2O)cnn1C (configuration not stated) |  | 4.84 |
| COc1cccc(-c2cc3nc(C)c(C)c(N4CCN(C(=O)c5ccoc5)CC4)n3n2)c1 | > 79 µM (inactive) |  |
| O=C(O)c1nn(CCOc2ccc(Br)cc2)c(=O)c2ccccc12 | > 79 µM (inactive) |  |
| O=C(COC(=O)Cc1n[nH]c(=O)c2ccccc12)Nc1ccc(Cl)cc1F | > 79 µM (inactive) |  |
| CCOC(=O)COc1cc(OCC(=O)OCC)c2c3c(c(=O)oc2c1)CCCC3 |  | 4.79 |
| COc1ccccc1OP(=O)(Nc1cccnc1)Oc1ccccc1OC | > 79 µM (inactive) |  |
| Cc1ccc(-n2cc(-c3ccccc3)c3c(N4CCOCC4)ncnc32)cc1 | > 79 µM (inactive) |  |
| CC1CCCN(Cc2nc3c(c(=O)n(C)c(=O)n3C)n2CCCc2ccccc2)C1 (configuration not stated) | 35 µM (inactive) |  |

| Structure (SMILES) | IC50 | pIC50 |
| --- | --- | --- |
| COc1ccc(COc2cc(-c3cccc(OC)c3)nc3ccc(NC(=O)c4ccc(OC)cc4)cc23)cc1 |  | 5.28 |
| CCOc1ccc2[nH]c(=O)c(CN(CCO)C(c3nnnn3C3CCCCC3)C(C)C)cc2c1 (configuration not stated) | > 79 µM (inactive) |  |
| O=C(CNC(=O)c1ccccc1F)N/N=C/c1cc(Br)ccc1OC(=O)/C=C/c1ccco1 | > 79 µM (inactive) |  |
| Cc1ccc(Cn2c(CCNc3nc(-c4ccc(Cl)c([N+](=O)[O-])c4)cs3)nc3cc(C(=O)NCCCO)ccc32)cc1 | > 79 µM (inactive) |  |
| Fc1ccc(CSc2ccc3nnc(-c4cccnc4)n3n2)cc1 |  | 4.59 |
| Cc1ccc(NS(=O)(=O)c2cc(-c3n[nH]c(=O)c4ccccc34)ccc2C)cc1 | > 79 µM (inactive) |  |
| Cc1ccccc1NP(=O)(Oc1ccccc1F)Oc1ccccc1F |  | 4.61 |
| COC(=O)N1C(=O)[C@](c2ccccc2)(C2CCCCC2)N1C(=O)OC |  | 4.60 |
| CC(C)c1ccccc1NC(=O)COC(=O)c1c2c(nc3ccccc13)CCN(Cc1ccccc1)C2 | > 79 µM (inactive) |  |
| c1ccc(N2CCOCC2)c(Nc2nc3ccccc3n3cnnc23)c1 |  | 4.63 |
| CC(OC(=O)Cn1[nH]c(=O)c2ccccc2c1=O)C(=O)NC1(C#N)CCCCC1 (configuration not stated) | > 79 µM (inactive) |  |
| O=C(CSc1nnc(-c2ccccc2)n1Cc1ccccc1)NNC(=O)c1ccccc1O | > 79 µM (inactive) |  |
| O=c1[nH]c(N2CCN(c3ccccc3)CC2)nc2c1CCC2 | > 79 µM (inactive) |  |
| CC(=O)Nc1cccc(-c2cc(NC=O)c3ncc(-c4ccc(C(C)=O)cc4)n3c2)c1 | > 79 µM (inactive) |  |
| Cc1sc2nc(COC(=O)Cc3ccccc3)[nH]c(=O)c2c1C | > 79 µM (inactive) |  |
| O=C(NC1CCCCC1)C(c1ccc2ncccc2c1)N(Cc1ccco1)C(=O)c1ccc2c(c1)OCCO2 (configuration not stated) | 31.4 µM (inactive) |  |
| Cn1c2ccccc2c(=O)c2ccc(NCc3ccc4c(c3)OCO4)cc21 |  | 5.09 |
| CCOC(=O)c1cccc(NC(=O)CSc2nc3ccccc3c(=O)n2CCOC)c1 | 34.1 µM (inactive) |  |
| COc1ccc(NC(=O)COc2cccc3c2CCNC3=O)cc1 | > 79 µM (inactive) |  |
| O=C(COc1cccc2c1CCNC2=O)Nc1ccc(Cl)cc1 | > 79 µM (inactive) |  |
| CC(=O)Nc1ccc(S(=O)(=O)N(Cc2cccnc2)Cc2cc3ccccc3[nH]c2=O)cc1 | > 79 µM (inactive) |  |
| COc1cc(-c2ccc3oc(-c4ccsc4)cc(=O)c3c2)cc(OC)c1OC | > 79 µM (inactive) |  |
| Nc1c(C(=O)NC2CC2)c2nc3ccccc3nc2n1-c1ccc2c(c1)OCO2 | > 79 µM (inactive) |  |
